Experimental data taken from US9512138B2, “Compositions and methods for treating cancer” (The Regents of the University of California, priority 2012, dated 2016).
“Also recorded” adds a separate entry of the source. Where a name gives a salt, the structure may show the parent alone.

How the values were obtained:
[1] = cited from earlier work
[2] = in vivo; cited from earlier work
[3] = system: A549, H23, H2122 and H1975 NSCLC cells; test: MTS cell viability/proliferation assay in NSCLC cell lines, 72 h; format: cell-based, human
Protocol: FIG. 5. Parthenolide analogues JD201-JD210 suppress human lung tumor cell proliferation in vitro. A549, H23, H2122 and H1975 NSCLC cells were treated with increasing concentrations of drugs (0.1-100 μM). After 72 h cell viability was assessed by MTS assay. Viable cells are expressed as percentage of vehicle control. P<0.01 (**), versus control group, P<0.05 (*), versus control group. Natural occurring parthenolide (PTL), parthenolide analogues JD201 (DMAPT)-JD210. Parthenolide analogues inhibit female (H1975, H2122) and male (H23, A549) NSCLC cell proliferation.
To determine the effect of parthenolide analogues in lung cancer cell proliferation we tested two male (A549, H23) and two female (H2122, H1975) lung cancer cell lines with increasing concentrations of parthenolide analogues (0.1, 1, 10 and 100 μM) for 72 hours.

[4] = system: NF-κB/p65 phosphorylation; test: Western blot of phospho-NF-κB/p65 in H23 cells; format: cell-based, human; conditions: for phosphorylation of the p65 subunit of NF-κB: 10 μM, 60 min (FIG. 7); for phosphorylation of NF-κB/p65: 10 µM, 60 min (FIG. 13)
Protocol: FIG. 7. […] After 60 min Western blot were performed using anti-phospho-NF-κB/p65 antibody (Cell Signaling Technology #3031). Membranes were stripped and re-probed with antibody against total NF-κB/p65 (CST #3037).
After 60 min, Western blots were done using anti-phospho-NFκB/p65 antibody (Cell Signaling).
Upon confirming that parthenolide analogues can inhibit NSCLC cell proliferation, induce cell death and enhance the cytotoxicity of chemotherapy, we began to investigate potential cellular mechanisms that may underlie this process. For example, we used Western Blot methods to determine phosphorylation of the p65 subunit of NF-κB. H23 cells were incubated in the presence of vehicle control or 10 μM concentration of the parthenolide derivatives (JD 201, 202, 203, 204) for 60 min. After treatment, cells were collected and homogenized in lysis buffer. Extracts were electrophoresed on 4-20% gradient SDS-PAGE gels and transferred to nitrocellulose membranes. Blots were probed with anti-phospho-NF-κB/p65 and NF-κB/p65 for a loading control.

[5] = system: MCF7 parent cells without HER2 overexpression; test: MCF-7 parent xenografts in nude mice; format: in vivo; conditions: 28 d treatment
Description: (§1) Conversion of estrogen-sensitive to -resistant tumors after the start of antiestrogen therapy is a major problem in the clinic (65). This resistance may be due, in part, to enhanced growth factor signaling, a cellular response to antiestrogen treatment that eventually results in increased phosphorylation of ER and/or coactivators, such as AIB1(54). Convergence between growth factor and estrogen signaling may elicit a synergistic feed-forward circuit with more robust cell growth (FIG. 10). It is notable that tumors with HER-2 overexpression tend to respond poorly to antiestrogens (69-72). […] Such clinical data offer further evidence of the biologic interaction between HER-2 and ER. To evaluate the relation of HER-2 to clinical antiestrogen resistance, we used estrogen-responsive, MCF-7 cells with defined levels of ER that were transfected with HER-2 gene (MCF-7/HER-2). MCF-7 cells+HER-2 overexpression and parent MCF-7 cells were grown as xenografts in nude mice as before (28) (FIGS. 11A-11B).
(§2) FIGS. 11A-11B. Overexpression of HER2 gene in MCF7 cells elicits resistance to endocrine therapy in vivo; FIG. 11A: Antiestrogen sensitivity of MCF7 parent cells without HER2 overexpression (control) in vivo. MCF7 cells were inoculated SQ in ovari-ectomized, nude mice primed with estrogen. […] Tumor volumes were recorded. […]

MCF-7/HER2 cells = test: MCF-7/HER2 xenografts in nude mice; format: in vivo
Description: as §1, §2

[6] = system: MCF-7/TAMR breast cancer cells; test: Proliferation of tamoxifen-resistant MCF-7/TMR (TAM-R) cells; format: cell-based, human; conditions: absence of parthenolide analogues
Protocol: MCF-7/CON cells are tamoxifen-sensitive, while MCF-7/HER2 and MCF-7/TMR cells are known to be tamoxifen-resistant (28,61,66,67). Except for TMR (64,68), cells were routinely cultured in RPMI 1640 media with 10% heat-inactivated FBS (28,64,66). For E2-free conditions, media were changed 48 h before studies to phenol-red free RPMI 1640 with 1% dextran-coated, charcoal-treated (DCC) FBS. TMR cells were derived by long-term continuous exposure of cells to 10^−7 M 4-hydroxy-tamoxifen by established methods (64,68) and were maintained with 10^−7 M 4-hydroxytamoxifen in medium. Levels of ERα and HER2 expression in these several cell lines were determined by use of Western blot methods.
Assays for Tumor Cell Proliferation. Breast tumor cells were be grown in RPMI 1640 media with 10% heat-inactivated FBS (except for TMR and TZR cells as noted above). For estrogen-free conditions, medium were changed 48 h before studies to phenol-red free RPMI 1640 with 1% dextran-coated, charcoal-treated (DCC) FBS, then treated with selected reagents. Cell counts and viability tests (Trypan blue) will be done every 24 hr for […]. After 48-72 hr, proliferation was assessed by cell counts.

A549 NSCLC cells = test: ALDH+/CD133+ cancer stem/progenitor cell subset by Aldefluor/CD133 FACS; format: cell-based, human; conditions: 10 nM estradiol-17b, P<0.001
Protocol: FIG. 1. Isolation of cancer stem/progenitor cell subsets as determined by assay of specific biomarkers, ALDH and CD133, and effect of estrogen exposure. NSCLC cells (A549) were treated in vitro with control (CON), 10 nM estradiol-17b (E2), or E2 in the presence of […] fulvestrant. Thereafter, aldehyde dehydrogenase (ALDH) activity and CD133 expression were analyzed by established double labeling methods using an Aldefluor Assay Kit and CD133 antibody, respectively, followed by FACS sorting. The numbers of ALDH+/CD133+ lung tumor cells, representing a putative CSC subset, was expressed as a percent of total lung tumor cells for each treatment group. […] Experiments were done in triplicate.
Substantial evidence has accumulated to support the role of a small subset of self-renewing cells that sustain malignant growth. […] Based on these findings, we identified CD133+/ALDH+ tumor stem/progenitor cells from human lung cancer cells in vitro using an Aldefluor assay (to isolate ALDH+ cells) (5,7,8) in combination with labeled anti-CD133 antibodies (3,10) followed by fluorescence-activated cell sorting analysis (11). In brief, ALDH activity and CD133 expression were analyzed by established double labeling methods using the Aldefluor Assay Kit (Stem Cell Technologies) and CD133/1 antibody (Miltenyi) according to the manufacturer's instructions. […] Data were analyzed using FlowJo (Tree Star Inc.). […]

## C/C1=C\CC[C@@]2(C)O[C@H]2[C@H]2OC(=O)[C@@H](CN(C)C)[C@@H]2CC1 [JD201, (1aR,7aS,8R,10aS,Z)-8-((Dimethylamino)methyl)-1a,5-dimethyl-2,3,6,7,7a,8,10a,10b-octa-hydrooxireno[2′,3′:9,10]cyclodeca[1,2-b]furan-9(1aH)-one, fumaric acid salt]
[1]; after oral administration
  plasma concentrations: 40 µM
[1]; oral
  oral bioavaliability: 70%
[2]
  toxicology profile: acceptable

## C/C1=C/CC[C@@]2(C)OC2[C@H]2OC(=O)[C@@H](CNCc3ccccn3)[C@@H]2CC1.O=C(O)/C=C/C(=O)O (stereo partly drawn) [JD202, (1aR,7aS,8R,10aS,Z)-1a,5-Dimethyl-8-(((pyridin-2-ylmethyl)amino)methyl)-2,3,6,7,7a,8, 10a,10b-octahydrooxireno[2′,3′:9,10]cyclodeca[1,2-b]furan-9(1aH)-one, fumaric acid salt]
[3]; 10 μM, A549, H23, H2122, H1975
  growth inhibition at 10 μM: Significant growth inhibition
[3]; A549, H23, H2122, H1975
  growth inhibition at 100 μM: Significant growth inhibition
[3]; FIG. 5, 0.1-100 μM
  inhibitory activity relative to other analogues: greater inhibitory activity than compounds 205 and 207
[4]
  phosphorylation of the p65 subunit of NF-κB: reduced phosphorylation of the p65 subunit of NF-κB; also recorded: inhibit phosphory-lation of NF-κB/p65
  phosphorylation of NF-κB/p65: inhibit phosphorylation of NF-κB/p65

## CON(C)C[C@@H]1C(=O)O[C@H]2[C@H]1CC/C(C)=C/CC[C@@]1(C)O[C@@H]21 [JD204, (1aR,7aS,8R,10aS,Z)-8-((Methoxy(methyl)amino)methyl)-1a,5-dimethyl-2,3,6,7,7a,8,10a, 10b-octahydrooxireno[2′,3′:9,10]cyclodeca[1,2-b]furan-9(1aH)-one, fumaric acid salt]
[4]
  phosphorylation of the p65 subunit of NF-κB: reduced phosphorylation of the p65 subunit of NF-κB; also recorded: inhibit phosphory-lation of NF-κB/p65
  phosphorylation of NF-κB/p65: inhibit phosphorylation of NF-κB/p65

## C/C1=C\CC[C@@]2(C)O[C@H]2[C@H]2OC(=O)/C(=C\N3CCCCC3)[C@@H]2CC1 [JD205, (1aR,4Z,7aS,8Z,10aS)-1a,5-Dimethyl-8-(piperidin-1-ylmethylene)-2,3,6,7,7a,8,10a,10b-octahydrooxireno[2′,3′:9,10]cyclodeca[1,2-b]furan-9(1aH)-one]
[3]; A549, H23, H2122, H1975
  growth inhibition at 100 μM: Significant growth inhibition
[4]
  phosphorylation of the p65 subunit of NF-κB: inhibit phosphory-lation of NF-κB/p65
  phosphorylation of NF-κB/p65: inhibit phosphorylation of NF-κB/p65

## C/C1=C\CC[C@@]2(C)O[C@H]2[C@H]2OC(=O)[C@@H](CN(C)O)[C@@H]2CC1 [JD207, (1aR,7aS,8R,10aS,Z)-8-((Hydroxy(methyl)amino)methyl)-1a,5-dimethyl-2,3,6,7,7a,8,10a, 10b-octahydrooxireno[2′,3′:9,10]cyclodeca[1,2-b]furan-9(1aH)-one, fumaric acid salt]
[3]; A549, H23, H2122, H1975
  growth inhibition at 100 μM: Significant growth inhibition

## C[C@]12CC[C@@H]3c4ccc(O)cc4C[C@@H](CCCCCCCCC[S+]([O-])CCCC(F)(F)C(F)(F)F)[C@H]3[C@@H]1CC[C@@H]2O (stereo partly drawn) [fulvestrant]
[5]
  growth of MCF-7 parent xenografts: markedly suppressed
MCF-7/HER2 cells
  antiestrogen sensitivity of MCF-7/HER-2 xenografts: partial sensitivity

## CC/C(=C(\c1ccccc1)c1ccc(OCCN(C)C)cc1)c1ccccc1 [tamoxifen]
[6]
  response of MCF-7/TMR cells to tamoxifen alone: resistant
[5]
  growth of MCF-7 parent xenografts: markedly suppressed
MCF-7/HER2 cells
  antiestrogen sensitivity of MCF-7/HER-2 xenografts: insensitive

## estradiol-17b
A549 NSCLC cells
  proportion/number of ALDH+/CD133+ cancer stem/progenitor cells: increases the proportion of cancer stem/progenitor cell subsets
A549 NSCLC cells; listed as estrogen
  proportion/number of ALDH+/CD133+ cancer stem/progenitor cells: modest increase in the numbers of CSC
